Data published in patent US20090328246A1, “USE OF THE ocp3 MUTATION TO REGULATE DROUGHT RESISTANCE IN PLANTS” (Calantia Biotech, S.L., priority 2006, published 2009).

Columns and labels:
Type in all cases: in vivo, Arabidopsis thaliana
OCP3 gene = experiment: Real-time PCR relative expression of OCP3 after exogenous ABA application; details: 150 μM ABA; wt plants; evident at very short times
Experimental: In both drought and dehydration conditions, plants respond by increasing the endogenous levels of ABA, which involves the activation of a signaling cascade having as a result a series of changes at the transcriptomic level. To study the possible effect that ABA may have in transcriptional OCP3 regulation in wt plants, the relative levels of the mRNA corresponding to the OCP3 gene is measured by quantitative RT-PCR (q-RT-PCR) at different times after applying ABA, as well as after subjecting the plants to dehydration stress. The ABI1 gene was used as a control in the experiments, the expression of which is known to be induced in response to both ABA and dehydration. As can be observed in FIG. 4, both as a result of applying 150 μM ABA and after imposing a water stress to the seedlings, a sharp drop of the accumulation levels of the transcript corresponding to the OCP3 gene is observed. Said repression in the expression of the OCP3 gene as a result of the treatment with ABA or of dehydration, already becomes evident at very short times. […]
FIG. 4. Relative expression levels of OCP3 and ABI1 in response to exogenous 150 μM ABA application (A) and dehydration (B) measured by real-time PCR. […]
The samples were analyzed in triplicate and the real-time PCR reactions were performed using Sybr Green PCR Master Mix (Applied Biosystems) in an ABI PRISM 7000 sequence detector. […]

[1] = system: rd29A, rd29B and rd22 water stress marker genes; experiment: RT-PCR expression of rd29A, rd29B and rd22 water stress marker genes after exogenous ABA application
From the text: A possibility that would explain the greater sensitivity to ABA of the ocp3 mutant as well as the increase in drought resistance could be that the mutation in said gene had caused a constitutive activation of the ABA-dependent signaling pathway and the final result of which would be the constitutive expression of dehydration-responsive genes which increase the protection levels against the damage caused by water stress and therefore this would aid the plants in better resisting this type of stress. For the purpose of studying this possibility, a molecular analysis was conducted, determining the expression levels (measured as accumulation of the corresponding mRNA by RT-PCR) of several signaling marker genes in response to dehydration, both of those genes activated by the ABA-dependent route, and of those genes the activation of which is independent of the ABA route. The rd29B and rd22 genes were used as markers of the ABA-dependent pathway, whereas rd29A was used for the ABA-independent pathway. The levels of the transcripts of these genes at different times (0, 1 h, 3 h and 6 h) were analyzed after incubating the plants in a liquid medium with 150 μM ABA.
FIG. 3. Analysis of the expression by RT-PCR of rd29A, rd29B and rd22 water stress marker genes in Col-0 and ocp3 plants, using the ELF1α gene as a control. The plants were grown in MS-Agar plates for 3 weeks and the RNAs were extracted from samples collected at different times. (A) Expression levels after exogenous 150 μM ABA application in a liquid culture. (B) Expression levels 10 minutes, 30 minutes and 1, 3 and 6 hours after subjecting the plants to dehydration.
FIG. 9. Comparison of the induction by ABA of the expression of rd29A, rd29B and rd22 water stress marker genes assayed by RT-PCR in RNA samples from Col-0, ocp3, aba2-1, abi1-1 and ocp3abi1-1 plants, and using the accumulation of the mRNA corresponding to the ELF1α gene as a control. The procedure was the same as that described for FIG. 3. […]
The semi-quantitative RT-PCR technique was used to determine the relative amounts of some mRNAs of interest. […]

[2] = system: stomata of ocp3 and wt plants; experiment: Measurement of the stomatal closure induced by ABA in epidermal peelings of rosette leaves; details: 100 μM ABA
From the text: There are different stimuli modifying the rate as well as the degree of opening/closure of the stomata and, among them, subjecting the plants to drought or depriving them of light should be emphasized, and both signalings are always directly related to an increase in the endogenous levels of ABA, a hormone determining the closure of stomata under inductive or stress conditions. To determine if there is any defect in ABA-mediated signaling in the ocp3 mutant, the decision was made to compare the stomatal closure rate between ocp3 plants and Col-0 plants, occurring after direct ABA application in epidermal samples (peelings) obtained from rosette leaves. […] Therefore, it is inferred from these experiments that the ocp3 mutant is more sensitive to the ABA hormone and this translates into an early response to this hormone which is manifested with an accelerated stomatal closure. The greater susceptibility to ABA is consistent with the hypersusceptibility shown by the seedlings when they are germinated and grown in the presence of ABA (FIG. 2). Furthermore, said hypersusceptibility to ABA could explain the drought resistance phenotype, since drought causes increases in ABA synthesis which in turn lead to the closure of stomata to prevent the loss of water by evapotranspiration. Thus, since the ocp3 mutant is more sensitive to ABA, it would accelerate the closure of its stomata with a drought signal and this promptness in the response could provide it with an advantage to resist the metabolic drawbacks derived from water privation better or for more time.
FIG. 7. Measurement of the stomatal closure induced by ABA (100 μM) in ocp3 and wt plants. Rosette leaves were detached from 6 week-old plants of the ocp3 and Col-0 genotypes and incubated in a solution (10 mM Mes-KOH pH 6.15 and 30 mM KCl) for 2 hours to induce the opening of the stomata. Then, 100 μM ABA was added to induce the closure of the stomata. The opening of the ostiole was measured at the different times indicated in epidermal peelings of the leaves with the different genetic backgrounds. […]

ocp3 plants = experiment: Effect of exogenous ABA on development of seedlings in MS-Agar plates; details: 0.8 μM ABA in MS-Agar; ocp3 mutant vs wt (Col-0); 17 days after seeding
Experimental: To study any possible effect of exogenous ABA application in the development of ocp3 plants, seeds of said mutant were seeded in MS-Agar plates, as well as in MS-Agar plates supplemented with an ABA concentration of 0.8 μM, and always using the wt wild type genotype (Col-0) as control plants in these experiments. […] Based on this it could therefore be deduced that the loss of function which can be attributed to the ocp3 mutation yields a hypersusceptibility to the ABA hormone and therefore the normal function of the OCP3 gene would be compatible with that of regulating any repression aspect of the ABA hormone transduction pathway, either in the sense of its synthesis or in that of its correct perception.
FIG. 2. Effect of ABA in the development of ocp3 plants compared with wt (Col-0) plants. The seeds were sterilized, stratified at 4° C. for 4 days and seeded in plates with MS-Agar medium and MS-Agar supplemented with 0.8 μM ABA. The photographs were taken 17 days after the seeding.
The plants were grown in Jiffy-7 compacted substrate (Clause-Tezier Iberica, Valencia, Spain) at 23° C. with a photoperiod of 10 hours of light and 14 of darkness. For the in vitro culture, the seeds were sterilized by adding 70% ethanol for 2 minutes and commercial 30% lye for 7 minutes. Subsequently, 5-7 washes with sterile water were performed and they were stratified at 4° C. for 4 days. […]

[3] = ABA application, abi1-1 and ocp3 abi1-1 double mutant, compared with wt or ocp3

Question: What does the source list for `CC1=CC(=O)CC(C)(C)[C@@]1(O)/C=C/C(C)=C\C(=O)O` [ABA, abscisic acid]?
Answer: accumulation levels of the OCP3 transcript (OCP3 gene): sharp drop; induction and accumulation levels of rd29A, rd29B, rd22 transcripts, wt (Col-0) vs ocp3 ([1]; 150 μM ABA, liquid medium, 0, 1 h, 3 h, 6 h): no observable differences; induction of the expression of the rd29A gene [1, 3]: greatly reduced; induction of the expression of the rd29B and rd22 genes [1, 3]: virtually annulled; closure of the stomata in ocp3 plants ([2]; 30 minutes after applying, ocp3 plants): accelerated closure; closure of the stomata in wt control ([2]; 30 minutes after applying, wt (Col-0)): has still not started the process for closing its stomata; state of the stomata of ocp3 and wt plants ([2]; 2 hours after applying, ocp3 and wt plants): completely closed; development of the ocp3 mutant in the presence of ABA (ocp3 plants): arrested in the first stages of germination
